US6903052B2, “Nematicidal compositions and methods” (Divergence, Inc., priority 2002, dated 2005)

Assays:
[1] = tested on: M. javanica; assay: Nematicidal activity of fatty acid methyl ester emulsions against root knot nematode J2 larvae (Example 6); format: cell-based, Meloidogyne javanica; details: 0.1% emulsion; 48 hours incubation, counted about 24 hours after transfer to plates
Protocol: (§1) Fatty acid methyl ester emulsions were prepared following the teachings of Kim et al (U.S. Pat. No. 5,698,592). Briefly, 1 ml 1% stock solution emulsions were prepared by mixing 10 μl of fatty acid methyl ester with 20 μl of the surfactant Igepal CO 630 in a 1.5 ml eppendorf tube. After careful mixing of fatty acid and Igepal CO 630, 850 μl of ddH20 was added and mixed by gentle pipetting until a homogeneous solution was obtained. Finally, 120 μl of pure isopropanol was added and mixed by gentle pipetting. This stock solution was then used to produce various fatty acid methyl ester dilution emulsions in 24-well plate assays.
(§2) Meloidogyne incognita and javanica were prepared from tomato roots. The roots were bleached and the debris was separated from the J2 larvae and eggs by filtration followed by sucrose density gradient centrifugation. Eggs were hatched over 4 days at 15° C. and the J2 larvae were collected by passage though a filter, followed by centrifugation.
(§3) Nematodes and emulsions were incubated with shaking at room temperature for 48 hours. The contents of each well were transferred to a small spot on individual NGM plates lacking bacteria. About 24 hours after the transfer to plates, worms on and off the inoculation spot were counted as not viable or viable, respectively. Worms were considered viable if they had crawled away from the inoculation spot, or if they were moving. Worms were considered non-viable if they remained at the inoculation spot.

[2] = tested on: M. incognita; assay: as above; format: cell-based, Meloidogyne incognita; details: 0.1% emulsion; 48 hours incubation, counted about 24 hours after transfer to plates
Protocol: as §1, §2, §3

[3] = tested on: root knot nematodes (Meloidogyne spp.); assay: Nematicidal activity against root knot nematodes, summary statement; format: cell-based; details: concentration of 0.1%
Protocol: as §2, §3

[4] = tested on: C. elegans; assay: Nematicidal activity of fatty acid methyl ester emulsions, spectrum (Example 8); format: cell-based, Caenorhabditis elegans; details: C. elegans mixed stage
Protocol: (§4) Briefly, the indicated fatty acid emulsions were added and rapidly mixed by swirling. Nematode viability was scored by visual observation and motility assays 24 hours following addition of emulsions (48 hours for plant parasitic nematodes Meloidogyne and Heterodera species). The fatty acid emulsions tested were methyl esters of nonanoic (pelargonic) acid, ricinelaidic acid, ricinoleic acid, vernolic acid, linoleic acid, and oleic acid. […] Results shown are mean % values obtained from multiple independent experiments
(§5) The Caenorhabiditis elegans were mixed stage populations. Similar effects seen on several other free-living nematode species. The Parastrongyloides trichosuri (parasite of Australian bushtail possum) were dauer-like infective 3rd stage larva. Similar effects are also seen against free-living stages. The Meloidogyne incognita and Meloidogyne javanica (root knot nematode) were 2nd stage juveniles (dauer-like infective stage). The Heterodera glycines (soybean cyst nematode) were 2nd stage juveniles (dauer-like infective stage). Finally, the Pratylenchus scribneri (corn lesion nematode) were mixed stage populations.

[5] = tested on: M. incognita; assay: as above; format: cell-based, Meloidogyne incognita; details: M. incognita 2nd stage juveniles, scored at 48 hours
Protocol: as §4, §5

[6] = tested on: M. javanica; assay: as above; format: cell-based, Meloidogyne javanica; details: M. javanica 2nd stage juveniles, scored at 48 hours
Protocol: as §4, §5

[7] = tested on: H. glycines; assay: as above; format: cell-based, Heterodera glycines; details: H. glycines 2nd stage juveniles, scored at 48 hours
Protocol: as §4, §5

[8] = tested on: P. scribneri; assay: as above; format: cell-based, Pratylenchus scribneri; details: P. scribneri mixed stage
Protocol: as §4, §5

[9] = tested on: free-living, animal parasitic, and plant parasitic nematodes; assay: Nematicidal activity across the spectrum of nematodes, summary statement (Example 8); format: cell-based; details: concentrations of 0.1% and 0.01%
Protocol: as §4, §5

[10] = tested on: C. elegans; assay: Nematicidal activity of emulsions made with Tween-20 (replacing Igepal CO 630) against C. elegans; format: cell-based, Caenorhabditis elegans; details: Tween-20 emulsion
Protocol: Some nematodes assayed as described in Example 9 lacked tolerance to emulsions made with the surfactant Igepal CO 630. For this reason some assays were repeated with Tween-20-based emulsions.
as §1, with “Briefly,” for “Fatty acid methyl ester emulsions were prepared following the teachings of Kim et al (U.S. Pat. No. 5,698,592). Briefly,”, “Tween-20” for “Igepal CO 630”, “Tween-20,” for “Igepal CO 630,”

[11] = tested on: C. elegans; assay: Nematicidal activity of emulsions made with cyclodextrins (replacing isopropanol) against C. elegans; format: cell-based, Caenorhabditis elegans; details: igepal CO 630 / 2-Hydroxypropyl-β-Cyclodextrin emulsion
From the text: In an effort to increase the bioavailability of fatty acid methyl esters in emulsions, isopropanol was replaced with one of two cyclodextrins (Methyl-β-Cyclodextrin or 2-Hydroxypropyl-β-Cyclodextrin).

[12] = tested on: B. malayi; assay: Nematicidal activity of tween-based emulsions against microfilarial nematodes; format: cell-based, Brugia malayi
Protocol: To each well, tween-based fatty acid emulsions were added and rapidly mixed by swirling. Nematode microfilaria viability was scored by visual observation of motility at 24 and 48 hours following addition of emulsions. The fatty acid emulsions tested were methyl esters of ricinoleic acid, vernolic acid, ricinelaidic acid, oleic acid, and control emulsions lacking fatty acids. The results of this study are presented in Table 7 as the percentage of non-motile microfilaria 24 hours after inoculation and in Table 8 as the percentage of non-motile microfilaria 48 hours after inoculation

[13] = tested on: everted hamster jejunal and ileal segments; details: Gaginella et al. (1975); cited from earlier work

In the case of CCCCCCC(O)C/C=C\CCCCCCCC(=O)OC (stereo not drawn) [Ricinoleic Acid (C18-methyl ester), 12-hydroxy-cis-9-octadecenoic acid methyl ester], the “M. javanica (% not viable)” value [1] is reported as 60%, the “M. incognita (% not viable)” value [2] is reported as 95% and the “Nematicidal activity (in words)” value [3] is reported as “significant nematicidal activity”. For the same compound, the “% Worm Death (24 hr)” value ([4]; 0.001% solution) was 30%, the “% Worm Death (24 hr)” value ([4]; 0.01% solution) was 80% and the “% Worm Death (24 hr)” value ([4]; 0.1% solution) was 100%. For the same compound, the “% Worm Death (24 hr)” value ([5]; 0.01% solution) was 83%, the “% Worm Death (24 hr)” value ([5]; 0.1% solution) was 95% and the “% Worm Death (48 hr)” value ([6]; 0.01% solution) was 5%. The “% Worm Death (48 hr)” value ([6]; 0.1% solution) was 60%, the “% Worm Death (24 hr)” value ([7]; 0.001% solution) was “˜40%” and the “% Worm Death (24 hr)” value ([7]; 0.01% solution) was “˜60%”. The “% Worm Death (24 hr)” value ([7]; 0.1% solution) was “˜60%”, the “% Worm Death (24 hr)” value ([8]; 0.01% solution) was <20% and the “% Worm Death (24 hr)” value ([8]; 0.1% solution) was <20%. For the same compound, the “Nematicidal activity (in words)” value [9] was “strongly nematicidal”, the “% Worm Death (24 hr)” value ([10]; 0.001% solution) was 40% and the “% Worm Death (24 hr)” value ([10]; 0.01% solution) was 100%. The “% Worm Death (24 hr)” value ([10]; 0.1% solution) was 100%, the “% Worm Death (24 hr)” value ([11]; 0.001% solution) was “˜50%” and the “% Worm Death (24 hr)” value ([11]; 0.01% solution) was >80%. The “% Worm Death (24 hr)” value ([11]; 0.1% solution) was >95%, the “percentage of non-motile microfilaria” value ([12]; 24 hrs post-inoculation, 0.0008%) was 0% and the “percentage of non-motile microfilaria” value ([12]; 24 hrs post-inoculation, 0.0016%) was 24.7%. For the same compound, the “percentage of non-motile microfilaria” value ([12]; 24 hrs post-inoculation, 0.003%) was 100%, the “percentage of non-motile microfilaria” value ([12]; 24 hrs post-inoculation, 0.005%) was 100% and the “percentage of non-motile microfilaria” value ([12]; 24 hrs post-inoculation, 0.0067%) was 100%. The “percentage of non-motile microfilaria” value ([12]; 24 hrs post-inoculation, 0.008%) was 100%, the “percentage of non-motile microfilaria” value ([12]; 48 hrs post-inoculation, 0.0008%) was 0% and the “percentage of non-motile microfilaria” value ([12]; 48 hrs post-inoculation, 0.0016%) was 64.2%. For the same compound, the “percentage of non-motile microfilaria” value ([12]; 48 hrs post-inoculation, 0.003%) was 100%, the “percentage of non-motile microfilaria” value ([12]; 48 hrs post-inoculation, 0.005%) was 100% and the “percentage of non-motile microfilaria” value ([12]; 48 hrs post-inoculation, 0.0067%) was 100%. The “percentage of non-motile microfilaria” value ([12]; 48 hrs post-inoculation, 0.008%) was 100%, the “Microfilarialcidal activity (in words)” value ([12]; tween-based emulsions) was “strong microfilarialcidal activity” and the “Effect on water (and electrolyte) absorption” value [13] was “ineffective at suppressing water absorption”.
